Results: the supplement of paper PMC10307832

How the values were obtained:
Assay in all cases: relative viability (nuclei count vs DMSO), 5 days (fraction); higher = more cells survive
VX-11e + Palbociclib = compound: CC1=CN=C(N=C1C2=CNC(=C2)C(=O)N[C@H](CO)C3=CC(=CC=C3)Cl)NC4=C(C=C(C=C4)F)Cl [VX-11e] + CC(=O)c1c(C)c2cnc(Nc3ccc(N4CCNCC4)cn3)nc2n(C2CCCC2)c1=O [Palbociclib] (partner 0.5 µM)
Outline: (§1)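 Lung cancer cell lines in 1536-well plates got either a single drug or a fixed anchor-drug dose together with five library-drug doses (not always all listed) in √10 steps, by pin tool, on the day after seeding. Nuclei were counted after 5 days, and relative viability is the treated-to-vehicle ratio of nuclei counts. Values are medians of duplicate plates.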

VX-11e + Crizotinib = compound: CC1=CN=C(N=C1C2=CNC(=C2)C(=O)N[C@H](CO)C3=CC(=CC=C3)Cl)NC4=C(C=C(C=C4)F)Cl [VX-11e] + C[C@@H](Oc1cc(-c2cnn(C3CCNCC3)c2)cnc1N)c1c(Cl)ccc(F)c1Cl [Crizotinib] (partner 1 µM)
Outline: as §1

VX-11e + AZD7762 = compound: CC1=CN=C(N=C1C2=CNC(=C2)C(=O)N[C@H](CO)C3=CC(=CC=C3)Cl)NC4=C(C=C(C=C4)F)Cl [VX-11e] + NC(=O)Nc1cc(-c2cccc(F)c2)sc1C(=O)N[C@H]1CCCNC1 [AZD7762] (partner 0.2 µM)
Outline: as §1

VX-11e + Vorinostat = compound: CC1=CN=C(N=C1C2=CNC(=C2)C(=O)N[C@H](CO)C3=CC(=CC=C3)Cl)NC4=C(C=C(C=C4)F)Cl [VX-11e] + O=C(CCCCCCC(=O)Nc1ccccc1)NO [Vorinostat] (partner 1 µM)
Outline: as §1

Cell Line	relative viability (VX-11e + Palbociclib; first compound 0.04 µM)	relative viability (VX-11e + Palbociclib; first compound 0.1265 µM)	relative viability (VX-11e + Palbociclib; first compound 0.4 µM)	relative viability (VX-11e + Palbociclib; first compound 1.265 µM)	relative viability (VX-11e + Palbociclib; first compound 4 µM)	relative viability (VX-11e + Crizotinib; first compound 0.04 µM)	relative viability (VX-11e + Crizotinib; first compound 0.1265 µM)	relative viability (VX-11e + Crizotinib; first compound 0.4 µM)	relative viability (VX-11e + Crizotinib; first compound 1.265 µM)	relative viability (VX-11e + Crizotinib; first compound 4 µM)	relative viability (VX-11e + AZD7762; first compound 0.04 µM)	relative viability (VX-11e + AZD7762; first compound 0.1265 µM)	relative viability (VX-11e + AZD7762; first compound 0.4 µM)	relative viability (VX-11e + AZD7762; first compound 1.265 µM)	relative viability (VX-11e + AZD7762; first compound 4 µM)	relative viability (VX-11e + Vorinostat; first compound 0.04 µM)	relative viability (VX-11e + Vorinostat; first compound 0.1265 µM)	relative viability (VX-11e + Vorinostat; first compound 0.4 µM)	relative viability (VX-11e + Vorinostat; first compound 1.265 µM)	relative viability (VX-11e + Vorinostat; first compound 4 µM)
HOP-62	0.505	0.451	0.464	0.434	0.348	0.887	0.863	0.978	0.76	0.428	0.486	0.644	0.234	0.315	0.166	0.519	0.59	0.345	0.201	0.158
LC-2-ad	0.48	0.42	0.54	0.46	0.409	0.459	0.424	0.529	0.395	0.401	0.913	0.844	0.798	0.458	0.468	0.84	0.695	0.733	0.456	0.376
LCLC-97TM1	0.202	0.176	0.194		0.114	0.396	0.383		0.324	0.182	0.259	0.172	0.23	0.175	0.14	0.765	0.718	0.758		0.149
LCLC-103H	0.469	0.435	0.502	0.456	0.448	1.01	1.09	0.968	0.882	0.852	0.766	0.71	0.801	0.606	0.654	0.807	0.68	0.673	0.46	0.66
LK-2	0.557	0.594	0.566	0.399	0.45		0.275	0.394		0.243	0.299	0.388	0.326	0.316	0.294	0.223	0.323	0.268	0.297	0.227
LOU-NH91	0.533	0.509		0.487	0.521	0.706	0.71		0.773	0.639	0.746	0.805		0.8	0.725	0.889	0.79		0.626	0.781
LU99A	0.334	0.373	0.443	0.326	0.228	0.527	0.496	0.517	0.475	0.243	0.244	0.37	0.142	0.18	0.195	0.468	0.469	0.487	0.274	0.226
LXF-289	0.633	0.61		0.618	0.473	0.902	0.788	0.87	0.706	0.543	1.15	1.12		0.805	0.686	0.851	0.726		0.668	0.543
NCI-H23	0.453	0.416	0.425	0.382	0.203	0.422	0.504	0.416	0.347	0.32	0.208	0.231	0.167	0.176	0.119	0.562	0.581	0.174	0.148	0.182
NCI-H322M	0.45	0.417	0.539	0.453	0.462	1.08		0.942	0.987	0.699	0.469	0.726	0.506	0.514	0.448	0.763	0.813	1.13	0.736	0.64
NCI-H358	0.122	0.139	0.0851	0.148	0.118	0.692	0.509		0.523	0.225	0.594	0.499		0.445	0.228	0.725	0.63	0.513	0.54	0.135
NCI-H441	0.175	0.232		0.157	0.165	0.711	0.72		0.857	0.555	1.23	1.12		1.17	1.05	0.835	0.786		0.753	0.569
NCI-H460	0.198	0.195	0.146	0.0404	0.0179	1.18	0.907	0.784	0.56	0.0797	0.561	0.54		0.646	0.378	0.855	0.693	0.692	0.522	0.0489
NCI-H647	0.37	0.346	0.372	0.256	0.217	1.1	0.916	1.01	0.608	0.523	0.347	0.573		0.426	0.215	0.501	0.655	0.637	0.496	0.339
NCI-H650	0.358	0.487	0.519	0.329	0.491		0.538	0.711		0.478	1.08	0.935	0.964	0.994	0.553	0.33	0.435	0.63	0.608	0.533
NCI-H727	0.589	0.358	0.602	0.559	0.412	0.722	0.847	0.712	0.419	0.243	0.519	0.616	0.652	0.476	0.385	0.997	1.08	1.28	1.12	0.787
